From US10543183B2, “Treatment and diagnosis of melanoma” (The Rockefeller University, priority 2012, dated 2020)
Structures can show the parent of a compound that is named as a salt.

How the values were obtained:
[1] = test system: ApoE promoter fused to ME.1 or ME.2 in MeWo cells; experiment: ApoE promoter activity assay (luciferase reporter); format: cell-based, human; conditions: 1 μM, 24 hours
Excerpt: The ApoE promoter, consisting of a sequence spanning 980 base pairs upstream and 93 base pairs downstream of the ApoE gene, was cloned into a pGL3-Basic vector (E1751, Promega Corporation, Madison, Wis.) upstream of the firefly luciferase gene using NheI and SacI restriction enzymes. Then, multi-enhancer elements 1 (ME.1) and 2 (ME.2) were cloned directly upstream of the ApoE promoter using MluI and […] restriction enzymes. To assess ApoE promoter- and ME.1/ME.2-driven transcriptional activation by LXR agonists, 5×10^4 MeWo cells were seeded into a 24-well plate. The following day, 100 ng of pGL3-ME.1/ME.2-ApoE promoter construct and 2 ng of pRL-CMV renilla luciferase construct (E2261, Promega) were co-transfected into cells in the presence of DMSO, GW3965, or T0901317 at 1 μM, each condition in quadruplicate. To assess transcriptional activation by LXRα or LXRβ, 5×10^4 MeWo cells expressing a control shRNA or shRNA targeting LXRα or LXRβ were seeded into a 24-well plate. […] After 24 hours, cells were lysed, and cell lysate was analyzed for firefly and renilla luciferase activity using the Dual Luciferase Assay System (E1960, Promega) and a Bio-Tek Synergy NEO Microplate Reader. Firefly luciferase signal was normalized to renilla luciferase signal and all data are expressed relative to the luciferase activity ratio measured in the DMSO-treated control cells.

[2] = test system: extracellular ApoE protein from melanoma cells; experiment: ApoE ELISA in conditioned media; format: cell-based, human; conditions: MeWo cells, 1 μM, 72 hours
Protocol: Extracellular ApoE levels in serum-free conditioned media from melanoma cells treated with DMSO, GW3965, or T0901317 (1 μM each) were quantified using the ApoE ELISA kit (Innovative Research) at 72 hours following treatment.

[3] = test system: human melanoma cells (MeWo, MeWo-LM2, A375-LM3, HT-144, SK-Mel-334.2); experiment: tail-vein lung metastatic colonization assay; format: in vivo, mouse; conditions: for reduction in lung metastatic colonization by MeWo cells: orally administered, immunocompromised mice
Protocol: After 8 hours, the transfection media was replaced with fresh media. After 48 hours, 1×10^5 cells were injected intravenously into NOD-SCID mice to assess lung metastatic colonization or through intracardiac injection into athymic nude mice to assess systemic metastasis. For cell invasion and endothelial recruitment in vitro assays, the cells were used 96 hours post-transfection.
Melanoma cells used for in vivo metastasis assays were transduced with a stably expressed retroviral construct encoding a luciferase reporter gene (Ponomarev et al., 2004), allowing us to monitor the in vivo progression of melanoma cells by bioluminescence imaging. The following numbers of melanoma cells, resuspended in 100 μL of PBS, were injected intravenously via the tail-vein: 4×10^4 MeWo cells, 2.5×10^5 HT-144 cells, 2×10^5 SK-Mel-334.2 cells, 5×10^4B 16F10 cells, and 1×10^5YUMM cells. The MeWo, HT-144, and SK-Mel-334.2 cells were injected into 6-8 week-old sex-matched NOD scid mice, while the B16F10 and YUMM cells were injected into 6-8 week-old sex-matched C57BL/6 mice. In all experiments assessing at the effects of GW3965 on metastasis formation, mice were pre-treated on a control diet or a GW3965-supplemented diet (20 mg/kg) for 10 days. To assess the effect of GW3965 treatment on brain metastasis, 1×10^5 MeWo brain-metastatic derivatives were injected intracardially into athymic nude mice. Immediately following injection, mice were randomly assigned to a control diet or GW3965-supplemented diet (100 mg/kg). To determine whether oral delivery of GW3965 can inhibit the progression of incipient metastasis, NOD Scid mice were intravenously injected with 4×10^4MeWo cells and the cells were allowed to colonize the lungs for 42 days, after which mice were blindedly assigned to a control diet or a GW3965-supplemented diet (100 mg/kg) treatment.

[4] = test system: ApoE expression in systemic tissues; experiment: systemic ApoE expression in mouse tissues (western blot, qRT-PCR); format: in vivo; conditions: 10 days; for ApoE protein expression in systemic adipose, lung, and brain tissues: chow 20 mg/kg; for ApoE transcript levels in circulating white blood cells: diet 20 mg/kg
Protocol: Mouse lung and brain tissue samples were homogenized on ice in RIPA buffer (Sigma-Aldrich) supplemented with protease inhibitors (Roche). Mouse adipose tissue was homogenized on ice in TNET buffer (1.5 mM Tris pH 7.5, 150 mM NaCl, 2 mM EDTA 1% triton, protease inhibitors). Total protein lysate (2 μg) was separated by SDS-PAGE, transferred to PVDF membrane, and blotted with an anti-mouse ApoE (ab20874, Abcam) and anti-tubulin α/β (2148, Cell Signaling) antibodies. RNA was extracted from whole cell lysates using the Total RNA Purification Kit (17200, Norgen, Thorold, Canada). 600 ng of total RNA was then reverse transcribed into cDNA using the cDNA First-Strand Synthesis Kit (18080-051, Invitrogen), and quantitative real-time PCR amplification was performed as previously described (Pencheva et al., 2012) using an ABI Prism 7900HT Real-Time PCR System (Applied Biosystems, Austin, Tex.). Each PCR reaction was carried out in quadruplicates. Gene expression was normalized to GAPDH, which was used as an endogenous control.

O=S(=O)(c1ccccc1)N(CC(F)(F)F)c1ccc(C(O)(C(F)(F)F)C(F)(F)F)cc1 [T0901317 1]
activity of luciferase reporter containing the ApoE promoter fused to ME.1 or ME.2 [1]: enhance | levels of secreted ApoE protein [2]: elevated levels | reduction in lung metastatic colonization by MeWo cells ([3]; chow 20 mg/kg): 23 fold | ApoE protein expression in systemic adipose, lung, and brain tissues [4]: significantly elevated | ApoE transcript levels in circulating white blood cells [4]: upregulated

O=C(O)Cc1cccc(OCCCN(Cc2cccc(C(F)(F)F)c2Cl)CC(c2ccccc2)c2ccccc2)c1 [GW3965 2, 3-[3-[N-(2-Chloro-3-trifluoromethylbenzyl)-(2,2-diphenylethyl)amino]propyloxy] phenylacetic acid hydrochloride]
activity of luciferase reporter containing the ApoE promoter fused to ME.1 or ME.2 [1]: enhance | levels of secreted ApoE protein [2]: elevated levels | reduction in metastatic colonization capacity of pre-treated cells ([3]; MeWo cells pre-treated 1 μM for 48 hours): more than 50 fold | survival times following metastatic colonization ([3]; chow 20 mg/kg): significantly prolonged | in vivo melanoma metastasis (lung, bioluminescence) ([3]; chow diet 20 mg/kg, tail-vein injection of parental MeWo cells): significant reduction | metastatic colonization by HT-144 and SK-Mel-334.2 lines ([3]; diet 20 mg/kg): suppressed | suppression of colonization by incipient lung metastases ([3]; diet 100 mg/kg from d42): 28 fold | number of macroscopic metastatic nodules formed ([3]; diet 100 mg/kg, d77): decreased | reduction in lung metastatic colonization by MeWo cells ([3]; chow 20 mg/kg): 31 fold | ApoE protein expression in systemic adipose, lung, and brain tissues [4]: significantly elevated | ApoE transcript levels in circulating white blood cells [4]: upregulated

recombinant ApoE3: recombinant human ApoE3 (4696, BioVision)
suppression of metastatic colonization ([3]; MeWo-LM2 cells pre-incubated for 24 hours at 100 μg/mL before injection): over 300 fold
